Counter-ions that a name gives are not always drawn.
Experiments:
Thrombin = target: T1, Thrombin (Homo sapiens, UniProt P00734); test: Jump dilution, determination of inhibition type; format: biochemical; details: inhibitor at 10 times IC50, 15 min, diluted 10-fold or 100-fold; Rev./Irrev.
T1 construct: purchased R&D
Method: The dissociation of the enzyme-inhibitor complex was monitored by substrate hydrolysis over time ([Joossens et al., 2006]).
Because ABPs are designed to be irreversible serine protease inhibitors, the IC50 is exclusively used as a first discriminatory evaluation. When an inhibitor is irreversible, its IC50 value not only depends on the substrate and enzyme concentration but also on the time of incubation with the enzyme before the reaction is started by adding the substrate. […] The progress curve in the presence of an irreversible inhibitor will show final velocities equal to zero (Figure 6C). In contrast, for a reversible inhibitor, progress curves have a non-zero final steady-state velocity (Figure 6A) ([McWhirter, 2021]). To corroborate the inhibitory mechanism of the compounds, jump-dilution assays were performed. These use an inhibitor concentration of 10-fold the IC50 for the incubation, and a posteriori, the reaction mixture is diluted 10-fold or 100-fold before adding the substrate. In the case of an irreversible inhibitor, enzymatic activity is not regained (Figure 6D), whereas, in the case of a reversible compound, a slow release of the inhibitor and a gradual increase of the enzymatic activity rate is observed (Figure 6B) ([Copeland, 2013]; [McWhirter, 2021]). The jump-dilution assays confirmed the behavior described by the progress curves.
2.2.2 Jump dilution results
Supplementary Table 2. Jump dilution of selected alkyne and desthiobiotin probes against a panel of trypsin-like serine proteases. […]
# R R DtBa 3 tryptase Thrombin uPA CatG
32b H Alk Irrev. Irrev. Rev. Irrev. Rev.
45b DtB Irrev. Irrev. Rev. N.D. N.D.
33b Alk Irrev. Irrev. Rev. Irrev. Rev.
46b Cl DtB Irrev. Irrev. Rev. N.D. N.D.
34b H Alk Rev. Rev. Rev. Irrev. Rev.
50b DtB Rev. Rev. Rev. Irrev. Rev.
35b Alk Rev. Rev. Rev. Irrev. Rev.
52b NHCOMe DtB Rev. Rev. Rev. Irrev. Rev.
36b Alk Rev. Rev. Rev. Irrev. Rev.
54b Cl DtB Rev. Rev. Rev. Irrev. Rev.
37b Alk Irrev. Irrev. N.D. Irrev. Irrev.
55b H DtB Irrev. Irrev. N.D. Irrev. Irrev.
38b Alk Irrev. Irrev. N.D. Irrev. Irrev.
56b NHCOMe DtB Irrev. Irrev. N.D. Irrev. Irrev.
39b Alk Irrev. Irrev. N.D. Irrev. Rev.
57b Cl DtB Irrev. Irrev. N.D. Irrev. Rev.
41b H Alk Irrev. Irrev. Irrev. N.D. N.D.
31b Pro-Lys H Alk Irrev. Irrev. Irrev. Irrev. N.D. a Alk: ABP precursor bearing an alkyne; DtB: desthiobiotin probe b Panel of serine proteases abbreviations: urokinase plasminogen activator (uPA), cathepsin G (catG) N.D.: IC50 is greater than 10µM, and jump dilution was not performed
2.2.3 Progress curves and Jump dilution experiments
Kinetic assays were performed in the following manner. The inhibitor was mixed with the substrate, and the buffer solution with the enzyme was added at the time zero. The progress curves show the release of para-nitroaniline (pNA) or 7-amino-4-methyl coumarin (AMC) as a function of time.
To monitor the dissociation of the inhibitor-enzyme, aliquots of the enzyme were incubated at 37 °C without and with the inhibitor at a concentration 10 times higher than its IC 50. The enzyme […]
min, the aliquots were diluted 10-fold or 100-fold into the substrate concentration and assay buffer used for the IC50 determination. The dissociation of the enzyme-inhibitor complex was monitored by substrate hydrolysis over time. Blue lines represent the control where no inhibitor was present. Pink lines represent the assay with inhibitor.

CatG = target: T2, CatG (Homo sapiens, UniProt P08311); test: Labeling and detection of recombinant proteases (SDS-PAGE blot, NeutrAvidin-HRP); format: binding; details: 1 µM ABP, 100 ng protease, 30 min 37°C, denaturing SDS-PAGE blot
T2 sequence (P08311 21-255): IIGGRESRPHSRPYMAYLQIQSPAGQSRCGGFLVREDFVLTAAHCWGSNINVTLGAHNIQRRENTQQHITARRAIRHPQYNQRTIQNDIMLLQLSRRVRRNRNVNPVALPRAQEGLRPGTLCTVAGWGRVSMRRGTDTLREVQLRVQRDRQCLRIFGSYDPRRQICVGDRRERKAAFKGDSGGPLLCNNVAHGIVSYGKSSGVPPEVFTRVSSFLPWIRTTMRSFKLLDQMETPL
Method: (§1) Recombinant proteases (100 ng) were labeled with 1 µM ABP in reaction buffer in a final volume of 40 µL for 30 min at 37°C. After the addition of 4X Laemmli buffer (Bio-Rad, GmbH) supplemented with Bond-Breaker Tris (2-CarboxyEthyl)Phosphine (TCEP) Solution (Thermo Scientific, United States), the samples were heated at 95°C for 5 min and loaded into 4%–20% Mini-Protean TGX precast gels (Bio-Rad, GmbH). After electrophoresis, the proteins were blotted onto nitrocellulose membranes using the Trans-Blot Transfer Turbo System (Bio-Rad). Membranes were incubated with NeutrAvidin-HRP (1:50,000), and bands were visualized with ECL Select Western Blot Detection Reagent (GE Healthcare Life Sciences) by chemiluminescence (Chemidoc XRS; Bio-Rad). The molecular weight of each band was determined with the Image Lab Software v5 (Bio-Rad).
(§2) To further characterize the newly synthesized compounds and their potential to be used as ABPs, nine desthiobiotin probes were used for the labeling and detection of recombinant proteases. The arginine (45b–46b) and the proline-lysine (58b) desthiobiotin probes were used as reference compounds. Whereas the benzyl guanidine (50b, 52b, 54b) and phenyl guanidine probes (55b–57b) were used to determine whether the mechanism of inhibition (reversible or irreversible) is an obstacle to visualize the proteases. Samples of human recombinant proteases (trypsin-3, β-tryptase, and CatG) were incubated with the different probes before electrophoresis and detection with NeutrAvidin-HRP on a Western blot. Figure 7A illustrates the ability of the desthiobiotin probes to indicate the presence of the corresponding trypsin-like enzyme. […] This effect can be explained due to the strong interactions between the active site of the protease and the probes. The high affinity and the slow off-rates were described in Table 5 by the equilibrium constants KI*. Assuming that there is an excess of inhibitor over enzyme, the free inhibitor concentration must be very low, lower than the KI*, in order for the complex to dissociate. Therefore, the high affinity complex E*I survives during the whole process of labeling, gel electrophoresis, and visualization.

Trypsin-3 = target: T3, Trypsin-3 (Homo sapiens, UniProt P35030); test: as above; format: binding; details: 1 µM ABP, 100 ng protease, 30 min 37°C, denaturing SDS-PAGE blot
T3 sequence (P35030 1-304): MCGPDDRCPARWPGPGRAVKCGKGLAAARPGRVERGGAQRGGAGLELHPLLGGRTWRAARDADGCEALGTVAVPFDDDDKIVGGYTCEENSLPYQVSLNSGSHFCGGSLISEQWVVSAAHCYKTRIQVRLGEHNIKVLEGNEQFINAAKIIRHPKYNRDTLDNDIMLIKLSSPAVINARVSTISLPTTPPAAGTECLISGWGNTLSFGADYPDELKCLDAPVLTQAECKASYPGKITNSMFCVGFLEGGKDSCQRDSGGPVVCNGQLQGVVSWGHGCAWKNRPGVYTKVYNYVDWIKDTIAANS
Method: as §1, §2

Compound	Thrombin jump dilution result (Thrombin)	labeling of recombinant CatG (CatG)	labeling of recombinant trypsin-3 (Trypsin-3)
C#CCCCOC(=O)NC(CCCNC(=N)N)P(=O)(Oc1ccccc1)Oc1ccccc1 (centres unmarked) [32b]	Rev.	–	–
C#CCCCOC(=O)NC(CCCNC(=N)N)P(=O)(Oc1ccc(Cl)cc1)Oc1ccc(Cl)cc1 (centres unmarked) [33b]	Rev.	–	–
C#CCCCOC(=O)NC(Cc1ccc(NC(=N)N)cc1)P(=O)(Oc1ccccc1)Oc1ccccc1 (centres unmarked) [34b]	Rev.	–	–
C#CCCCOC(=O)NC(Cc1ccc(NC(=N)N)cc1)P(=O)(Oc1ccc(NC(C)=O)cc1)Oc1ccc(NC(C)=O)cc1 (centres unmarked) [35b]	Rev.	–	–
C#CCCCOC(=O)NC(Cc1ccc(NC(=N)N)cc1)P(=O)(Oc1ccc(Cl)cc1)Oc1ccc(Cl)cc1 (centres unmarked) [36b]	Rev.	–	–
C#CCCCOC(=O)NC(C1CCN(C(=N)N)CC1)P(=O)(Oc1ccccc1)Oc1ccccc1 (centres unmarked) [41b]	Irrev.	–	–
C[C@@H]1NC(=O)N[C@@H]1CCCCCC(=O)NCCOCCOCCOCCn1cc(CCCOC(=O)NC(CCCNC(=N)N)P(=O)(Oc2ccccc2)Oc2ccccc2)nn1 (some centres unmarked) [45b]	Rev.	–	–
C[C@@H]1NC(=O)N[C@@H]1CCCCCC(=O)NCCOCCOCCOCCn1cc(CCCOC(=O)NC(CCCNC(=N)N)P(=O)(Oc2ccc(Cl)cc2)Oc2ccc(Cl)cc2)nn1 (some centres unmarked) [46b]	Rev.	–	–
C[C@@H]1NC(=O)N[C@@H]1CCCCCC(=O)NCCOCCOCCOCCn1cc(CCCOC(=O)NC(Cc2ccc(NC(=N)N)cc2)P(=O)(Oc2ccccc2)Oc2ccccc2)nn1 (stereo partly drawn) [50b, 3-(1-(18-((4R,5S)-5-methyl-2-oxoimidazolidin-4-yl)-13-oxo-3,6,9-trioxa-12-azaoctadecyl)-1H-1,2,3-triazol-4-yl)propyl (1-(diphenoxyphosphoryl)-2-(4-guanidinophenyl)ethyl)carbamate trifluoroacetate salt]	Rev.	can label	can label
CC(=O)Nc1ccc(OP(=O)(Oc2ccc(NC(C)=O)cc2)C(Cc2ccc(NC(=N)N)cc2)NC(=O)OCCCc2cn(CCOCCOCCOCCNC(=O)CCCCC[C@H]3NC(=O)N[C@H]3C)nn2)cc1 (some centres unmarked) [52b]	Rev.	can label	can label
C[C@@H]1NC(=O)N[C@@H]1CCCCCC(=O)NCCOCCOCCOCCn1cc(CCCOC(=O)NC(Cc2ccc(NC(=N)N)cc2)P(=O)(Oc2ccc(Cl)cc2)Oc2ccc(Cl)cc2)nn1 (some centres unmarked) [54b]	Rev.	can label	can label

— publication PMC9849758, “Chemically diverse activity-based probes with unexpected inhibitory mechanisms targeting trypsin-like serine proteases” (Frontiers in Chemistry, 2023)
